According to patent US12479856B2, “Pharmaceutical compounds for the treatment of complement mediated disorders” (Achillion Pharmaceuticals, Inc., priority 2019, dated 2025):
pIC50: −log10 of the molar value.

target: T1, Human complement C1s enzyme (Homo sapiens, UniProt P09871); assay: Human C1s Enzyme Assay; assay type: biochemical; settings: Table 1; C1s purified from human serum, 1.16 nM; substrate Z-L-Lys-SBzl; read-out: C1s Protease Activity
T1 construct: purified from human serum, Complement Technology, Inc; purchased Complement Technology, Inc; host or cells: human serum (plasma-derived natural protein)
T1 sequence (P09871 438-688 limits assumed): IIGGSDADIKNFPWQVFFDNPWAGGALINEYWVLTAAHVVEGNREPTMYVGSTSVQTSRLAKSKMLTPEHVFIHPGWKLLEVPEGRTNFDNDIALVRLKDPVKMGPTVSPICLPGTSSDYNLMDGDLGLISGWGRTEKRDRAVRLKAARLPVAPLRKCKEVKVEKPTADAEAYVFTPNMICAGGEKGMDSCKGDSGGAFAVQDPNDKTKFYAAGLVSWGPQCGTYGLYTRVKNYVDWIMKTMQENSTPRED
T1 sequence (P09871 16-437 partner limits assumed): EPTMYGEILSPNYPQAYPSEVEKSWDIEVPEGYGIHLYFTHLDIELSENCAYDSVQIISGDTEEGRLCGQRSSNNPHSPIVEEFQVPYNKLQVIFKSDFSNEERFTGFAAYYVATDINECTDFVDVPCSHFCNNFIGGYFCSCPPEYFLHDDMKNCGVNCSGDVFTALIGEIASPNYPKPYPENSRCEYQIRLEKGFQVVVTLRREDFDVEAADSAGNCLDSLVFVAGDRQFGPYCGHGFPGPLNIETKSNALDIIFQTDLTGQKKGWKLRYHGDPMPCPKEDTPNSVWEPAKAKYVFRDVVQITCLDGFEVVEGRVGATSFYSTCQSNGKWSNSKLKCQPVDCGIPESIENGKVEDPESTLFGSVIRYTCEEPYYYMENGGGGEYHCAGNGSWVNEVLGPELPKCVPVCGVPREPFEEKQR
Protocol: Example 4. Human C1s Enzyme Assay
Human complement C1s enzyme (purified from human serum, Complement Technology, Inc.) at 1.16 nM final concentration is incubated with test compound at various concentrations for 5 min at room temperature in 50 mM Tris, 1 M NaCl, pH 7.5. A synthetic substrate Z-L-Lys-SBzl and DTNB (Ellman's reagent) are added to final concentrations of 100 μM each. Absorbance at 405 nm (A405) is recorded at 30 second intervals for 30 min using a microplate spectrophotometer. IC50 values are calculated by nonlinear regression of complement C1s reaction rates as a function of test compound concentration.

`Cc1ccc(Oc2ccc(C(=O)NCC(=O)N3CC4(C[C@H]3C(=O)NCc3cc(C(=N)N)cs3)OCCO4)cc2)cc1` [Compound 1, (8S)—N-[(4-carbamimidoylthiophen-2-yl)methyl]-7-(2-{[4-(4-methylphenoxy)phenyl]formamido}acetyl)-1,4-dioxa-7-azaspiro[4.4]nonane-8-carboxamide] and `N=C(N)c1csc(CNC(=O)[C@@H]2CC3(CN2C(=O)CNC(=O)c2ccc(Oc4ccccc4)cc2)OCCO3)c1` [Compound 2, (8S)—N-[(4-carbamimidoylthiophen-2-yl)methyl]-7-{2-[(4-phenoxyphenyl)formamido]acetyl}-1,4-dioxa-7-azaspiro[4.4]nonane-8-carboxamide] cannot be ordered by pIC50: > 7.00 for the first, > 7.00 for the second.

First: C[C@@]1(C(=O)NCc2cc(C(=N)N)cs2)CCCN1C(=O)CNC(=O)c1ccc(Oc2ccccc2)cc1 [Compound 3, (2S)—N-[(4-Carbamimidoylthiophen-2-yl)methyl]-2-methyl-1-{2-[(4-phenoxyphenyl)formamido]acetyl}pyrrolidine-2-carboxamide]
Second: N=C(N)c1csc(CNC(=O)[C@H]2CCCN2C(=O)CNC(=O)c2ccc(Oc3ccccc3)cc2)c1 [Compound 5, (2R)—N-[(4-Carbamimidoylthiophen-2-yl)methyl]-1-{2-[(4-phenoxyphenyl)-formamido]acetyl}pyrrolidine-2-carboxamide]
The pIC50 of the first is higher: > 7.00 for the first, < 6.00 for the second.

Compared with `N=C(N)c1csc(CNC(=O)[C@@H]2CSCN2C(=O)CNC(=O)c2ccc(Oc3ccccc3)cc2)c1` [Compound 4, (4R)—N-[(4-Carbamimidoylthiophen-2-yl)methyl]-3-{2-[(4-phenoxyphenyl)formamido]acetyl}-1,3-thiazolidine-4-carboxamide], `N=C(N)c1csc(CNC(=O)[C@@H]2CN2C(=O)CNC(=O)c2ccc(Oc3ccccc3)cc2)c1` [Compound 14, (2S)—N-[(4-Carbamimidoylthiophen-2-yl)methyl]-1-{2-[(4-phenoxyphenyl)formamido]acetyl}aziridine-2-carboxamide] is lower in pIC50: > 7.00 for the first, 6.00 to 7.00 for the second. The first is the more potent here.

`C=C1C[C@@H](C(=O)NCc2cc(C(=N)N)cs2)N(C(=O)CNC(=O)c2ccc(Oc3ccccc3)cc2)C1` [Compound 6, (2S)—N-[(4-Carbamimidoylthiophen-2-yl)methyl]-4-methylidene-1-{2-[(4-phenoxyphenyl)formamido]acetyl}pyrrolidine-2-carboxamide] and `N=C(N)c1csc(CNC(=O)[C@@H]2CC(=O)CN2C(=O)CNC(=O)c2ccc(Oc3ccccc3)cc2)c1` [Compound 15, (2S)—N-[(4-Carbamimidoylthiophen-2-yl)methyl]-4-oxo-1-{2-[(4-phenoxyphenyl)formamido]acetyl}pyrrolidine-2-carboxamide] cannot be ordered by pIC50: > 7.00 for the first, > 7.00 for the second.

`N=C(N)c1csc(CNC(=O)C2N(C(=O)CNC(=O)c3ccc(Oc4ccccc4)cc3)CC23CCC3)c1` (stereo not shown) [Compound 7, N-[(4-Carbamimidoylthiophen-2-yl)methyl]-2-{2-[(4-phenoxyphenyl)formamido]acetyl}-2-azaspiro[3.3]heptane-1-carboxamide] and `N=C(N)c1csc(CNC(=O)C2CC3(CCC3)CN2C(=O)CNC(=O)c2ccc(Oc3ccccc3)cc2)c1` (stereo not shown) [Compound 11, N-[(4-Carbamimidoylthiophen-2-yl)methyl]-6-{2-[(4-phenoxyphenyl)formamido]acetyl}-6-azaspiro[3.4]octane-7-carboxamide] cannot be ordered by pIC50: > 7.00 for the first, > 7.00 for the second.

`C[C@@]12C[C@@H](C(=O)NCc3cc(C(=N)N)cs3)N(C(=O)CNC(=O)c3ccc(Oc4ccccc4)cc3)[C@@H]1C2` [Compound 8, (1R,3S,5R)—N-[(4-Carbamimidoylthiophen-2-yl)methyl]-5-methyl-2-{2-[(4-phenoxyphenyl)formamido]acetyl}-2-azabicyclo[3.1.0]hexane-3-carboxamide] and `C[C@@]12C[C@@H]1N(C(=O)CNC(=O)c1ccc(Oc3ccccc3)cc1)[C@H](C(=O)NCc1cc(C(=N)N)cs1)C2` [Compound 9, (1S,3S,5S)—N-[(4-Carbamimidoylthiophen-2-yl)methyl]-5-methyl-2-{2-[(4-phenoxyphenyl)formamido]acetyl}-2-azabicyclo[3.1.0]hexane-3-carboxamide] cannot be ordered by pIC50: > 7.00 for the first, > 7.00 for the second.

Compared with `N=C(N)c1csc(CNC(=O)C2CC3(CC3)CN2C(=O)CNC(=O)c2ccc(Oc3ccccc3)cc2)c1` (stereo not shown) [Compound 10, N-[(4-Carbamimidoylthiophen-2-yl)methyl]-5-{2-[(4-phenoxyphenyl)formamido]acetyl}-5-azaspiro[2.4]heptane-6-carboxamide], `N=C(N)c1csc(CNC(=O)[C@@H]2CC3(CCCC3)CN2C(=O)CNC(=O)c2ccc(Oc3ccccc3)cc2)c1` [Compound 12, (3S)—N-[(4-Carbamimidoylthiophen-2-yl)methyl]-2-{2-[(4-phenoxyphenyl)formamido]acetyl}-2-azaspiro[4.4]nonane-3-carboxamide] is higher in pIC50: 6.00 to 7.00 for the first, > 7.00 for the second.

`N=C(N)c1csc(CNC(=O)[C@@H]2CC3(CCCCC3)CN2C(=O)CNC(=O)c2ccc(Oc3ccccc3)cc2)c1` [Compound 13, (3S)—N-[(4-Carbamimidoylthiophen-2-yl)methyl]-2-{2-[(4-phenoxyphenyl)formamido]acetyl}-2-azaspiro[4.5]decane-3-carboxamide] and `N=C(N)c1cccc(CNC(=O)[C@@H]2CC3(CN2C(=O)CNC(=O)c2ccc(Oc4ccccc4)cc2)OCCO3)c1` [Compound 18, (8S)—N-[(3-Carbamimidoylphenyl)methyl]-7-{2-[(4-phenoxyphenyl)formamido]acetyl}-1,4-dioxa-7-azaspiro[4.4]nonane-8-carboxamide] cannot be ordered by pIC50: < 6.00 for the first, < 6.00 for the second.

`N=C(N)CCCNC(=O)[C@@H]1CC2(CN1C(=O)CNC(=O)c1ccc(Oc3ccccc3)cc1)OCCO2` [Compound 16, (8S)—N-(3-Carbamimidoylpropyl)-7-{2-[(4-phenoxyphenyl)formamido]acetyl}-1,4-dioxa-7-azaspiro[4.4]nonane-8-carboxamide] and `N=C(N)CCCCNC(=O)[C@@H]1CC2(CN1C(=O)CNC(=O)c1ccc(Oc3ccccc3)cc1)OCCO2` [Compound 17, (8S)—N-(4-Carbamimidoylbutyl)-7-{2-[(4-phenoxyphenyl)formamido]acetyl}-1,4-dioxa-7-azaspiro[4.4]nonane-8-carboxamide] cannot be ordered by pIC50: < 6.00 for the first, < 6.00 for the second.

Going from `N=C(N)c1ccc(CNC(=O)[C@@H]2CC3(CN2C(=O)CNC(=O)c2ccc(Oc4ccccc4)cc2)OCCO3)cc1` [Compound 19, (8S)—N-[(4-Carbamimidoylphenyl)methyl]-7-{2-[(4-phenoxyphenyl)formamido]acetyl}-1,4-dioxa-7-azaspiro[4.4]nonane-8-carboxamide] to `CC(=O)Nc1ccc(CNC(=O)[C@@H]2CC3(CN2C(=O)CNC(=O)c2ccc(Oc4ccccc4)cc2)OCCO3)cc1` [Compound 21, (8S)—N-[(4-Acetamidophenyl)methyl]-7-{2-[(4-phenoxyphenyl)formamido]acetyl}-1,4-dioxa-7-azaspiro[4.4]nonane-8-carboxamide], the pIC50 falls from > 7.00 to < 6.00. The first is the more potent here.

`CC(=O)Nc1cccc(CNC(=O)[C@@H]2CC3(CN2C(=O)CNC(=O)c2ccc(Oc4ccccc4)cc2)OCCO3)c1` [Compound 20, (8S)—N-[(3-Acetamidophenyl)methyl]-7-{2-[(4-phenoxyphenyl)formamido]acetyl}-1,4-dioxa-7-azaspiro[4.4]nonane-8-carboxamide] and `Nc1ccc(CCNC(=O)[C@@H]2CC3(CN2C(=O)CNC(=O)c2ccc(Oc4ccccc4)cc2)OCCO3)cc1` [Compound 23, (8S)—N-[2-(4-Aminophenyl)ethyl]-7-{2-[(4-phenoxyphenyl)formamido]acetyl}-1,4-dioxa-7-azaspiro[4.4]nonane-8-carboxamide] cannot be ordered by pIC50: < 6.00 for the first, < 6.00 for the second.

`N=C(N)NCCC[C@H](NC(=O)[C@@H]1CC2(CN1C(=O)CNC(=O)c1ccc(Oc3ccccc3)cc1)OCCO2)C(N)=O` [Compound 22, N-{2-[(8S)-8-{[(1S)-4-Carbamimidamido-1-carbamoylbutyl]carbamoyl}-1,4-dioxa-7-azaspiro[4.4]nonan-7-yl]-2-oxoethyl}-4-phenoxybenzamide] and `Nc1cc(CCNC(=O)[C@@H]2CC3(CN2C(=O)CNC(=O)c2ccc(Oc4ccccc4)cc2)OCCO3)ccn1` [Compound 24, (8S)—N-[2-(2-Aminopyridin-4-yl)ethyl]-7-{2-[(4-phenoxyphenyl)formamido]acetyl}-1,4-dioxa-7-azaspiro[4.4]nonane-8-carboxamide] cannot be ordered by pIC50: < 6.00 for the first, < 6.00 for the second.

same assay, conditions: Table 3; C1s purified from human serum, 1.16 nM; substrate Z-L-Lys-SBzl; read-out: C1s Protease Activity

In the case of `N=C(N)c1csc(CNC(=O)C2C3CCC(C3)N2C(=O)CNC(=O)c2ccc(Oc3ccccc3)cc2)c1` (stereo in doubt) [Compound 96, (1R,3R,4S)-N-((4-carbamimidoylthiophen-2-yl)methyl)-2-((4-phenoxybenzoyl)glycyl)-2-azabicyclo[2.2.1]heptane-3-carboxamide], the pIC50 was > 7.00.
